Data on 13 compounds can be found in patent US5475130A, “Anilide derivative” (Taisho Pharmaceutical Co., Ltd., priority 1990, dated 1995).

The first test concerns the target T1, ACAT (acyl-coenzyme A cholesterol acyltransferase) (Oryctolagus cuniculus, UniProt G1SFD9).
T1 construct: A rabbit small intestinal microsome fraction was prepared in the usual way; from tissue; host or cells: rabbit small intestine, microsome fraction
T1 sequence (G1SFD9 1-524): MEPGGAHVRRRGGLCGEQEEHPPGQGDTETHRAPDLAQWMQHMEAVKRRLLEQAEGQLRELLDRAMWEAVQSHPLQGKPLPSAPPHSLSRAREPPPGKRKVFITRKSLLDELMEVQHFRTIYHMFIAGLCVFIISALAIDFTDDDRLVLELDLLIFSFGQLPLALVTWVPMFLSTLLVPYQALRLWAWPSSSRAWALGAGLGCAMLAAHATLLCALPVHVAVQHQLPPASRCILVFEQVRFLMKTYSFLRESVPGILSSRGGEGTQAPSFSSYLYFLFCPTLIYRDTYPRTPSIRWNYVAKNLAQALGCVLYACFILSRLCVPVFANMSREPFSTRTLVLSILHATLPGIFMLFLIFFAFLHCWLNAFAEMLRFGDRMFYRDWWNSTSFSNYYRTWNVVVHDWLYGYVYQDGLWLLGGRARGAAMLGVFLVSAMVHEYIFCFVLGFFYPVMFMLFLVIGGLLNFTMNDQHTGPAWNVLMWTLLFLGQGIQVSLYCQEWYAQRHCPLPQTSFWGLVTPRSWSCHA
Kind of test: ACAT inhibition activity (rabbit small intestinal microsome fraction, [1-^14 C]oleyl coenzyme A). In kind it is biochemical.
Conditions: not given
The method, then:
(ACAT inhibition activity)
A rabbit small intestinal microsome fraction was prepared in the usual way, and the thus prepared microsome fraction was suspended in 0.04N potassiumphosphate buffer (pH 7.4) containing 0.1N sucrose, 0.03N ethylenediaminetetraacetic acid (EDTA) and 0.05N potassium chloride. Each of the drugs to be tested was dissolved in dimethyl sulfoxide.
The rabbit small intestinal microsome fraction suspension prepared above (250 μg as protein) and [1-^14 C]oleyl coenzyme A were added to 0.05N phosphate buffer (pH 7.4) containing 1% bovine serum albumin, followed by the addition of a drug to be tested with varied concentration,and the total volume was adjusted to 500 μl. The thus prepared mixture was incubated at 37° C. for 6 minutes, and the reaction was terminated by adding a mixture of chloroform and methanol (mixing ratio=2:1). After stirring, the resulting chloroform layer was collected and dried by concentration. […] A gel portion corresponding to cholesterol oleate was cut out and its radioactivity was measured using a liquid scintillation counter (LSC-3000, manufactured by Aroka Co., Ltd.). Samples obtained without using the drugs to be tested were also treated and measured in the same manner.
ACAT activity inhibition ratio (%)=(A-B)/B×100
A: ACAT activity when a drug to be tested is administered.
B: ACAT activity when a drug to be tested is not admistered.
With `CCCCCCCCCCCCCCSCC(=O)Nc1c(C(C)C)cccc1C(C)C` [Compound 1, N-(2,6-diisopropylphenyl)-2-(tetradecylthio)acetamide], the concentration for half-maximal inhibition (IC50) (in general, the concentration needed to halve the response being measured) is 1 to 10 nM.

The same test, now with this note: rabbit small intestinal microsome fraction (250 μg as protein), 37° C., 6 minutes, pH 7.4, 1% bovine serum albumin; read-out: Activity (strength of the activity, IC50 value).
Turning to `CCCCCCCCCCCCCCS(=O)(=O)CC(=O)Nc1c(C(C)C)cccc1C(C)C` [Compound 14, N-(2,6-diisopropylphenyl)-2-(tetradecylsulfonyl)acetamide], the IC50 lay in the range of 10 to 100 nM. The same measure, in the same setting: under `CCCCCCCCCCCCCCSCC(=O)Nc1c(C)cccc1C(C)(C)C` [Compound 24, N-(2-methyl-6-t-butylphenyl)-2-(tetradecylthio)acetamide] stands 1 to 10 nM.

Turning to `CCCCCCCCCCCCS(=O)(=O)CC(=O)Nc1c(C(C)C)cccc1C(C)C` [Compound 17, N-(2,6-diisopropylphenyl)-2-(dodecylsulfonyl)acetamide], the IC50 was in the range of 10 to 100 nM. `CCCCCCCCCCCCCCSCCC(=O)Nc1c(C(C)C)cccc1C(C)C` [Compound 12, N-(2,6-diisopropylphenyl)-3-(tetradecylthio)propanamide]: the IC50 is 1 to 10 nM.

Consider `CCCCCCCCCCCCCCCCCCSCC(=O)Nc1c(C(C)C)cccc1C(C)C` [Compound 6, N-(2,6-diisopropylphenyl)-2-(octadecylthio)acetamide], for which the IC50 is 1 to 10 nM. The same measure, in the same setting: under `CC(C)c1cccc(C(C)C)c1NC(=O)CSCc1ccc(C(C)(C)C)cc1` [Compound 8, N-(2,6-diisopropylphenyl)-2-(4-t-butylbenzylthio)acetamide] stands 10 to 100 nM.

Consider `CCCCCCCCCCCCCCSC(C)(C)C(=O)Nc1c(C(C)C)cccc1C(C)C` [Compound 9, N-(2,6-diisopropylphenyl)-2-methyl-2-(tetradecylthio)propanamide], for which the IC50 was in the range of 10 to 100 nM.

Regarding `CCCCCCCCCCCCSCC(=O)Nc1c(C(C)C)cccc1C(C)C` [Compound 4, N-(2,6-diisopropylphenyl)-2-(dodecylthio)acetamide], the IC50 is 10 to 100 nM.

In the case of `CCCCCCCCCCCCCCSCCCC(=O)Nc1c(C(C)C)cccc1C(C)C` [Compound 10, N-(2,6-diisopropylphenyl)-4-(tetradecylthio)butanamide], the IC50 lay in the range of 1 to 10 nM. For `CCCCCCCCCCCCCC[S+]([O-])CC(=O)Nc1c(C(C)C)cccc1C(C)C` (stereo not shown) [Compound 13], the IC50 was 10 to 100 nM. The same measure, in the same setting: under `CCCCCCCCCCCCCCCCS(=O)(=O)CC(=O)Nc1c(C(C)C)cccc1C(C)C` [Compound 18, N-(2,6-diisopropylphenyl)-2-(hexadecylsulfonyl)acetamide] stands 10 to 100 nM; under `CCCCCCCCCCCCCCCCSCC(=O)Nc1c(C(C)C)cccc1C(C)C` [Compound 5, N-(2,6-diisopropylphenyl)-2-(hexadecylthio)acetamide], 10 to 100 nM.
